Laboratory results: paper PMC2847917 (The Journal of General Physiology, 2010)

What was measured:
P2X4 receptor [1] = target: T1, P2X4 receptor (Mus musculus, UniProt Q9JJX6); assay: cell-based
T1 sequence (Q9JJX6 1-388): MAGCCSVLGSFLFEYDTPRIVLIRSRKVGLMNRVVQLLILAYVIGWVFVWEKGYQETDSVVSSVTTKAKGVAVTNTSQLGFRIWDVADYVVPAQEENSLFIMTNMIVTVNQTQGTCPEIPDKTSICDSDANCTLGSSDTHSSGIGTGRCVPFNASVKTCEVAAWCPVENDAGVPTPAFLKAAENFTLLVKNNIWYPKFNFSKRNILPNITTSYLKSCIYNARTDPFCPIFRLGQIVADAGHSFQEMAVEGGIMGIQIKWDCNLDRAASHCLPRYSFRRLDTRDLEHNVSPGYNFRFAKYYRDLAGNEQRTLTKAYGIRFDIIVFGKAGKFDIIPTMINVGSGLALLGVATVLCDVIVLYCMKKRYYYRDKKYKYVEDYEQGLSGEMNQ

P2X4 receptor [2] = target: T1, P2X4 receptor; assay: whole-cell voltage clamp, agonist-evoked inward current; type: cell-based

Structure (SMILES) | EC50 (P2X4 receptor [1]) [µM] | whole-cell voltage clamp, agonist-evoked inward current (partial agonist) (P2X4 receptor [2])
Nc1ncnc2c1ncn2[C@@H]1O[C@H](COP(=O)(O)OP(=O)(O)OP(=O)(O)O)[C@@H](O)[C@H]1O [ATP] | 33 | –
Nc1ncnc2c1ncn2[C@@H]1O[C@H](COP(=O)(O)CP(=O)(O)OP(=O)(O)O)[C@@H](O)[C@H]1O [α,β-Methylene ATP] | – | α,β-Methylene ATP was a partial agonist
